Reference: US11484567B2, “Use of immune suppressive domains as medicaments” (iSD Immunotech ApS, priority 2013, dated 2022)

Key:
STING [1] = experiment: Pulldown of HA-tagged STING C-terminal domain with biotinylated INF ISD peptide and streptavidin coated beads, immunoblot; assay type: binding
STING [2] = molecular target: T1, STING (Homo sapiens, UniProt Q86WV6); experiment: as above; assay type: binding
T1 construct: the C-terminal domain of STING was expressed with a HA-tag in HEK293 cells; expressed in transfected cells; host or cells: HEK293
T1 sequence (Q86WV6 162-379): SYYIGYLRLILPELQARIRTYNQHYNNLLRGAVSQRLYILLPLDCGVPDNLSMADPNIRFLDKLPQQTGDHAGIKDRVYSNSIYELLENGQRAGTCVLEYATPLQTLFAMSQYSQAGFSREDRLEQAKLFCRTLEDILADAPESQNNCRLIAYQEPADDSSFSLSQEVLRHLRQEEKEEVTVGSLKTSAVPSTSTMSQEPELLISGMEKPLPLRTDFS

BMDCs = experiment: Cytokine release (type I IFN bioassay) from LPS-treated BMDCs pretreated with peptide; assay type: cell-based

## GLFGAIAGFIENGWEGCGGEKEKEK [INF ISD peptide]
STING [1]
  pulldown of wt STING: readily pulled down
STING [2]
  pulldown of STING deletion mutant DN5 (162-N): readily pulled down
BMDCs; BMDCs treated with LPS for 16 hours, pretreated with peptide, supernatants analyzed for type I IFN using bioassay
  amounts of cytokines released by cells treated with LPS (FIG. 9): significantly lower amounts of cytokines
BMDCs; pretreatment of cells with peptide, LPS (Example 3)
  release of cytokines including pro-inflammatory cytokines such as TNFalpha and IL-6: decrease in the release of cytokines
